Measurements as given in patent US11312726B2, “Thienodiazepine derivatives and application thereof” (priority 2017, dated 2022).

What was measured:
[1] = system: MC38 mouse colon cancer cell transplantation tumor; assay: In vivo anti-tumor effect, MC38 mouse colon cancer transplantation tumor model; conditions: for relative tumor proliferation rate T/C / tumor growth inhibition rate TGI: 20th day after administration
Method: In Vivo Anti-Tumor Effect of Compound 32 in MC38 Mouse Colon Cancer Cell Animal Transplantation Tumor Model
Week-age and weight: 6-7 weeks of age, 16-20 grams of body weight
Supplier: Shanghai SLAC Laboratory Animal Co., Ltd.
3. Experiment Methods and Steps
Mouse colon cancer MC38 cells (OBiO Technology (Shanghai) Corp., Ltd.) were cultured in monolayer in vitro, and the culture conditions were DMEM culture medium (Gibco; article number: 12100) with 10% fetal bovine serum. The culture was performed at 37° C. in 5% CO2 in an incubator. Conventional digestion treatment with 0.25% pancreatin-EDTA for passage was carried out. When the cells were in the exponential growth phase and the saturation was 80%-90%, the cells were harvested, counted, and inoculated.
3.2 Tumor Cell Inoculation
0.1 mL of 2×10^5 MC38 cells were subcutaneously inoculated into the right-back of each mouse. The random grouping and administration was carried out according to the tumor volume when the average tumor volume reached about 70 mm^3.
Tumor diameter was measured twice a week with vernier calipers. The equation for calculating tumor volume was V=0.5×a×b^2, wherein a and b represented the major and minor diameters of the tumor, respectively.
The tumor inhibition effect of the compound was evaluated by TGI (%) or relative tumor proliferation rate T/C (%). Relative tumor proliferation rate T/C (%)=TRTV/CRTV×100% (TRTV: RTV of the treatment group; CRTV: RTV of the negative control group). The relative tumor volume (RTV) was calculated according to the results of the tumor measurement. The calculation equation was RTV=Vt/V0, where V0 was the average tumor volume measured at the grouping and administration (i.e. D0), and Vt was the average tumor volume at the time of a certain measurement. TRTV and CRTV were obtained from the data on the same day.
TGI (%) reflected the tumor growth inhibition rate.
At the end of the experiment, the tumor weight would be measured and the Tweight/Cweight percentage would be calculated. Tweight and Cweight represented the tumor weights of the administration group and the medium control group, respectively.
Statistical analysis was performed using SPSS software based on the tumor volume and the tumor weight at the end of the experiment. The comparison between two groups was analyzed by t-test, and the comparison between three or more groups was analyzed by one-way ANOVA.

[2] = target: BRD4-BD1 (Homo sapiens (Human), UniProt O60885); assay: BRD4 biochemical activity test (TR-FRET), BD1; conditions: read-out: BRD4 Binding (BD1), IC50
From the text: BRD4 Biochemical Activity Test
1) BRD4-BD1 and BRD4-BD2 proteins of BPS Company, polypeptide of ANASPEC Company, and test reagent of PerkinElmer Company were used in the experiments;
2) The TR-FRET experimental principle was used in the experiment to screen compounds.
3) Relevant control compounds
1) Preparation of the Compound Plate:
Preparation of the compound plate in the experiment was achieved by Echo:
2) Preparation of Reaction Reagents:
Relevant reaction reagents should be prepared on the day of the experiment:
a) Formulation of 1× assay buffer;
b) Formulation of 3× component solution for the experiment: […]
1. The reagent was taken out and placed on ice to naturally melt for later use;
2. “Solution A” (protein solution), “solution B” (polypeptide solution), and “solution C” (test reagent solution) used in the experiment were formulated with the 1× assay buffer, and during the formation of the 3× solution from the components used in the experiment reaction system, the amounts of solutions A, B and C must be enough for the required amounts in the experiment.
3) Experimental Operation Steps:
The experiment plate was a plate that contained a gradient concentration of the compound and a corresponding DMSO solution and was prepared with ECHO before the experiment:
a) The experiment plate was taken out, and 5 μL/well of “solution A” (protein solution) was added to columns 2-23 of the experiment plate, then 5 μL/well of 1× assay buffer was added to columns 1 and 24 of the experiment plate, and columns 1 and 24 were used as Min control in the experiment system;
b) Centrifugation at 1000 rpm was carried out for 30 seconds;
c) The plate was incubated at 23° C. for 20 minutes;
d) After 20 minutes of incubation, 5 μL/well of “solution B” (polypeptide solution) was added to columns 1-24 of the experiment plate;
e) Centrifugation at 1000 rpm was carried out for 30 seconds;
f) The plate was incubated at 23° C. for 20 minutes;
g) After 20 minutes of incubation, 5 μL/well of “solution C” (test reagent solution) was added to columns 1-24 of the experiment plate;
h) Centrifugation at 1000 rpm was carried out for 30 seconds;
i) The plate was incubated at 23° C. for 40 minutes;
j) The experiment plate was placed on EnVision to read the plate.
a) The corresponding Max control and Min control of each experiment plate were used to convert to the Z′ value of the experiment plate, and the Z′ value of each plate was ensured to be >0.5;
b) The IC50 value was calculated from the signal of the control compound by XLFIT5, and ensured to be maintained within 3 times of the average value of historical data.

[3] = each administration group (15, 25, 50 mg/kg)

## Cc1sc2c(c1C)C(c1ccc(Cl)cc1)=N[C@@H](CC(=O)Nc1ccc3c(c1)COC3=O)c1nnc(C)n1-2 [Compound 32]
[1]; 15 mg/kg p.o. BID × 20 days
  relative tumor proliferation rate T/C: 33.68%
  tumor growth inhibition rate TGI: 68.81%
[1]; 25 mg/kg p.o. BID × 20 days
  relative tumor proliferation rate T/C: 27.59%
  tumor growth inhibition rate TGI: 75.21%
[1]; 50 mg/kg p.o. BID × 20 days
  relative tumor proliferation rate T/C: 10.04%
  tumor growth inhibition rate TGI: 93.46%
[1]; [3]
  tolerance of the animals: good tolerance
  tumor inhibition effect (in words): Significant tumor inhibition effects
[2]
  IC50: 66 nM
